According to patent US10899754B2, “Modulators of indoleamine 2,3-dioxygenase” (GLAXOSMITHKLINE INTELLECTUAL PROPERTY DEVELOPMENT LIMITED, priority 2016, dated 2021):

Columns and labels:
[1] = test system: human peripheral blood mononuclear cells (PBMC); experiment: PBMC cytotoxicity assay (CellTiter-Glo); assay type: cell-based; settings: 2 days, pCC50
Protocol: (§1) Compounds of the present invention were tested via high-throughput cellular assays utilizing detection of kynurenine via mass spectrometry and cytotoxicity as end-points. For the mass spectrometry and cytotoxicity assays, human peripheral blood mononuclear cells (PBMC) (PB003F; AllCells®, Alameda, Calif.) were stimulated with human interferon-γ (IFN-γ) (Sigma-Aldrich Corporation, St. Louis, Mo.) and lipopolysaccharide from Salmonella minnesota (LPS) (Invivogen, San Diego, Calif.) to induce the expression of indoleamine 2, 3-dioxygenase (IDO1). Compounds with IDO1 inhibitory properties decreased the amount of kynurenine produced by the cells via the tryptophan catabolic pathway. Cellular toxicity due to the effect of compound treatment was measured using CellTiter-Glo® reagent (CTG) (Promega Corporation, Madison, Wis.), which is based on luminescent detection of ATP, an indicator of metabolically active cells.
(§2) In preparation for the assays, test compounds were serially diluted 3-fold in DMSO from a typical top concentration of 1 mM or 5 mM and plated at 0.5 μL in 384-well, polystyrene, clear bottom, tissue culture treated plates with lids (Greiner Bio-One, Kremsmünster, Austria) to generate 11-point dose response curves. Low control wells (0% kynurenine or 100% cytotoxicity) contained either 0.5 μL of DMSO in the presence of unstimulated (−IFN-γ/−LPS) PBMCs for the mass spectrometry assay or 0.5 μL of DMSO in the absence of cells for the cytotoxicity assay, and high control wells (100% kynurenine or 0% cytotoxicity) contained 0.5 μL of DMSO in the presence of stimulated (+IFN-γ/+LPS) PBMCs for both the mass spectrometry and cytotoxicity assays.
(§3) Frozen stocks of PBMCs were washed and recovered in RPMI 1640 medium (Thermo Fisher Scientific, Inc., Waltham, Mass.) supplemented with 10% v/v heat-inactivated fetal bovine serum (FBS) (Thermo Fisher Scientific, Inc., Waltham, Mass.), and 1× penicillin-streptomycin antibiotic solution (Thermo Fisher Scientific, Inc., Waltham, Mass.). The cells were diluted to 1,000,000 cells/mL in the supplemented RPMI 1640 medium. 50 μL of either the cell suspension, for the mass spectrometry assay, or medium alone, for the cytotoxicity assay, were added to the low control wells, on the previously prepared 384-well compound plates, resulting in 50,000 cells/well or 0 cells/well respectively. IFN-γ and LPS were added to the remaining cell suspension at final concentrations of 100 ng/ml and 50 ng/ml respectively, and 50 μL of the stimulated cells were added to all remaining wells on the 384-well compound plates. The plates, with lids, were then placed in a 37° C., 5% CO2 humidified incubator for 2 days.
(§4) Following incubation, the 384-well plates were removed from the incubator and allowed to equilibrate to room temperature for 30 minutes. For the cytotoxicity assay, CellTiter-Glo® was prepared according to the manufacturer's instructions, and 40 μL were added to each plate well. After a twenty minute incubation at room temperature, luminescence was read on an EnVision® Multilabel Reader (PerkinElmer Inc., Waltham, Mass.). For the mass spectrometry assay, 10 μL of supernatant from each well of the compound-treated plates were added to 40 μL of acetonitrile, containing 10 μM of an internal standard for normalization, in 384-well, polypropylene, V-bottom plates (Greiner Bio-One, Kremsmünster, Austria) to extract the organic analytes. Following centrifugation at 2000 rpm for 10 minutes, 10 μL from each well of the acetonitrile extraction plates were added to 90 μL of sterile, distilled H2O in 384-well, polypropylene, V-bottom plates for analysis of kynurenine and the internal standard on the RapidFire 300 (Agilent Technologies, Santa Clara, Calif.) and 4000 QTRAP MS (SCIEX, Framingham, Mass.). MS data were integrated using Agilent Technologies' RapidFire Integrator software, and data were normalized for analysis as a ratio of kynurenine to the internal standard. […]

[2] = molecular target: indoleamine 2, 3-dioxygenase (IDO1) (Homo sapiens, UniProt P14902); experiment: IDO1 PBMC RapidFire MS assay (kynurenine detection by mass spectrometry); assay type: cell-based; parameters: to induce the expression of indoleamine 2, 3-dioxygenase (IDO1); host or cells: human PBMC stimulated with IFN-gamma and LPS; settings: human PBMC stimulated with IFN-γ and LPS, 2 days, pIC50, read-out: PBMC PXC50 (converted)
Sequence of indoleamine 2, 3-dioxygenase (IDO1) (P14902 whole entry): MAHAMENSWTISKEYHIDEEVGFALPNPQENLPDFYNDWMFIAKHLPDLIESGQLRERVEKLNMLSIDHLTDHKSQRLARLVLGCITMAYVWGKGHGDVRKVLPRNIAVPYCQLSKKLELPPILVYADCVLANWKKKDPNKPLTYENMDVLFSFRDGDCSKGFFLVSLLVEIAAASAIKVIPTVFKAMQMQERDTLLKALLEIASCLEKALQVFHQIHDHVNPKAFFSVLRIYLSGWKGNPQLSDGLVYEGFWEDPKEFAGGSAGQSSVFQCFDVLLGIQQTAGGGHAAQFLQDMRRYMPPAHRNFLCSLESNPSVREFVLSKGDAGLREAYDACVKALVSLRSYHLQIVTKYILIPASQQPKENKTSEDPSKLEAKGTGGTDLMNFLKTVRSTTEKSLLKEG
Protocol: IDO1 PBMC RapidFire MS Assay
as §1, §2, §3, §4

Compound | PBMC TOX PXC50 [1] | IC50 [2]
CONC(=O)C[C@@H](C)c1ccc(N(CC(C)C)C2CCOCC2)c(Nc2nc(C(F)(F)F)ns2)c1 [Example 106, (R)-3-(4-(Isobutyl(tetrahydro-2H-pyran-4-yl)amino)-3-((3-(trifluoromethyl)-1,2,4-thiadiazol-5-yl)amino)phenyl)-N-methoxybutanamide] | <5 | 6.31 nM
CC(C)CN(c1ccc([C@H](C)CC(=O)O)cc1Nc1n[nH]c(C(N)=O)n1)[C@H]1CC[C@H](O)CC1 (racemic) [example 225, (3RS)-3-{3-[(5-carbamoyl-1H-1,2,4-triazol-3-yl)amino]-4-[(2-methylpropyl)[(1rs&,4rs&)-4-hydroxycyclohexyl]amino]phenyl}butanoic acid] | <5 | 7940 nM
CO[C@H]1CC[C@H](N(CC(C)C)c2ccc([C@H](C)CC(=O)O)cc2Nc2ccc(C#N)cn2)CC1 [Example 56, (R)-3-(3-((5-cyanopyridin-2-yl)amino)-4-(isobutyl((1r,4R)-4-methoxycyclohexyl)amino)phenyl)butanoic Acid] | <5 | 3.98 nM
CC(C)CN(c1ccc([C@H](C)CC(=O)NS(C)(=O)=O)cc1Nc1nc(C(F)(F)F)ns1)C1CCOCC1 [Example 107, (R)-3-(4-(Isobutyl(tetrahydro-2H-pyran-4-yl)amino)-3-((3-(trifluoromethyl)-1,2,4-thiadiazol-5-yl)amino)phenyl)-N-(methylsulfonyl)butanamide] | 5.3 | 6.31 nM
CC(C)CN(c1ccc(C(C)CC(=O)O)cc1Nc1nncs1)C1CCCCC1 (stereo not drawn) [example 235, 3-{4-[cyclohexyl(2-methylpropyl)amino]-3-[(1,3,4-thiadiazol-2-yl)amino]phenyl}butanoic acid] | <5 | 20 nM
CC(C)CN(c1ccc([C@H](C)CC(=O)O)cc1Nc1ccc(C(F)(F)F)cn1)C1CCOCC1 [Example 27, (R)-3-(4-(isobutyl(tetrahydro-2H-pyran-4-yl)amino)-3-((5-(trifluoromethyl)pyridin-2-yl)amino)phenyl)butanoic Acid] | <5 | 3.98 nM
CC(C)CN(c1ccc([C@H](C)CC(=O)O)cc1Nc1ccc(Cl)cn1)C1CCOCC1 [Example 8, (R)-3-(3-((5-chloropyridin-2-yl)amino)-4-(isobutyl(tetrahydro-2H-pyran-4-yl)amino)phenyl)butanoic Acid] | <5 | 0.794 nM
CC(C)CN(c1ccc([C@H](C)CC(=O)O)cc1Nc1n[nH]c(C(F)(F)F)n1)C1CCOCC1 [Example 32, (R)-3-(4-(Isobutyl(tetrahydro-2H-pyran-4-yl)amino)-3-((5-(trifluoromethyl)-1H-1,2,4-triazol-3-yl)amino)phenyl)butanoic Acid] | <5 | 10 nM
CC(C)CN(c1ccc([C@H](C)CC(=O)O)cc1Nc1ccc(C(F)(F)F)nn1)C1CCOCC1 [Example 18, (R)-3-(4-(isobutyl(tetrahydro-2H-pyran-4-yl)amino)-3-((6-(trifluoromethyl)pyridazin-3-yl)amino)phenyl)butanoic Acid] | <5 | 2 nM
CC(C)CN(c1ccc([C@H](C)CC(=O)O)cc1Nc1ccc(Cl)c(C#N)n1)C1CCOCC1 [Example 30, (R)-3-(3-((5-chloro-6-cyanopyridin-2-yl)amino)-4-(isobutyl(tetrahydro-2H-pyran-4-yl)amino)phenyl)butanoic Acid] | <5 | 7.94 nM
CO[C@H]1CC[C@@H](N(CC(C)C)c2ccc([C@H](C)CC(=O)O)cc2Nc2ccc(C#N)cn2)CC1 [Example 53, (R)-3-(3-((5-cyanopyridin-2-yl)amino)-4-(isobutyl((1s,4S)-4-methoxycyclohexyl)amino)phenyl)butanoic Acid] | <5 | 1.58 nM
CC(C)CN(c1ccc([C@H](C)CC(=O)O)cc1Nc1nc(Cl)ns1)C1CC2(CCC2)C1 [Example 98, (R)-3-(3-((3-chloro-1,2,4-thiadiazol-5-yl)amino)-4-(isobutyl(spiro[3.3]heptan-2-yl)amino)phenyl)butanoic Acid] | <5 | 7.94 nM
CO[C@H]1CC[C@@H](N(CC(C)C)c2ccc([C@H](C)CC(=O)O)cc2Nc2n[nH]c(C3CC3)n2)CC1 [Example 63, (R)-3-(3-((5-cyclopropyl-1H-1,2,4-triazol-3-yl)amino)-4-(isobutyl((cis)-4-methoxycyclohexyl)amino)phenyl)butanoic Acid] | <5 | 6.31 nM
CC(C)CN(c1ccc([C@H](C)CC(=O)O)cc1Nc1nc(C#N)c[nH]1)C1CCOCC1 [example 228, (3R)-3-{3-[(4 cyano-1H-imidazol-2-yl)amino]-4-[(2-methylpropyl)(oxan-4-yl)amino]phenyl}butanoic acid] | <5 | 15.8 nM
CC(C)CN(CC(C)C)c1ccc(C(C)(C)CC(=O)O)cc1Nc1nc(C(F)(F)F)ns1 [Example 3, 3-(4-(diisobutylamino)-3-((3-(trifluoromethyl)-1,2,4-thiadiazol-5-yl)amino)phenyl)-3-methylbutanoic Acid] | <5 | 1.58 nM
CC(C)CN(c1cc(F)c([C@H](C)CC(=O)O)cc1Nc1ccc(Cl)cn1)C1CCOCC1 [Example 36, (R)-3-(5-((5-chloropyridin-2-yl)amino)-2-fluoro-4-(isobutyl(tetrahydro-2H-pyran-4-yl)amino)phenyl)butanoic Acid] | <5 | 0.631 nM
CO[C@H]1CC[C@H](N(CC(C)C)c2ccc([C@H](C)CC(=O)O)cc2Nc2n[nH]c(C3CC3)n2)CC1 (racemic) [example 221, (3RS)-3-{3-[(5-cyclopropyl-1H-1,2,4-triazol-3-yl)amino]-4-[(2-methylpropyl)[(1rs&,4rs&)-4-methoxycyclohexyl]ami-no]phenyl}butanoic acid] | <5 | 39.8 nM
CC(C)CN(c1ccc(-c2ccncc2C(=O)O)cc1Nc1nc(C(F)(F)F)ns1)C1CCOCC1 [example 267, 4-{4-[(2-methylpropyl)(oxan-4-yl)amino]-3-{[3-(trifluoromethyl)-1,2,4-thiadiazol-5-yl]amino}phenyl}pyridine-3-carboxylic acid] | <5 | 39.8 nM
CC(C)CN(c1ccc([C@H](C)CC(=O)O)cc1Nc1nc(C(N)=O)c[nH]1)C1CCOCC1 [example 230, (3R)-3-{3-[(4-carbamoyl-1H-imidazol-2-yl)amino]-4-[(2-methylpropyl)(oxan-4-yl)amino]phenyl}butanoic acid] | <5 | 3160 nM
CO[C@H]1CC[C@@H](N(CC(C)C)c2ccc([C@H](C)CC(=O)O)cc2Nc2nc(C(F)(F)F)ns2)CC1 [Example 43, (R)-3-(4-(isobutyl((1s,4S)-4-methoxycyclohexyl)amino)-3-((3-(trifluoromethyl)-1,2,4-thiadiazol-5-yl)amino)phenyl)butanoic Acid] | <5 | 0.631 nM
CC(C)CN(c1ccc(C(C)CC(=O)O)cc1Nc1nnc(C(=O)NC(C)C)s1)C1CCCCC1 (stereo not drawn) [example 245, 3-{4-[cyclohexyl(2-methylpropyl)amino]-3-({5-[(propan-2-yl)carbamoyl]-1,3,4-thiadiazol-2-yl}amino)phenyl}butanoic acid] | <5 | 398 nM
